Several values for one entry are separate records, joined by “and”; a condition that tells them apart may be missing. Equal values may be shown once.
What was measured:
KM-12 = conditions: for TGI: KM-12, colon cancer, mutant p53, 48 h
MDA-MB-231 = conditions: for TGI: MDA-MB-231, breast cancer, mutant p53, 48 h
SNB-19 = conditions: for TGI: SNB-19, CNS cancer (brain tumor), mutant p53, 48 h
NCI-H226 = conditions: for TGI: NCI-H226, non-small-cell lung cancer, p53 Lit. inconclusive, 48 h
PC-3 = conditions: for TGI: PC-3, prostate cancer, mutant p53 (null p53 protein), 48 h
RXF 393 = conditions: for TGI: RXF 393, renal cancer, mutant p53, 48 h
A549 = conditions: for TGI: A549, non-small-cell lung cancer, wild-type p53, 48 h
NCI-H460 = conditions: for TGI: NCI-H460, non-small-cell lung cancer, wild-type p53, 48 h
UO-31 = conditions: for TGI: UO-31, renal cancer, wild-type p53, 48 h
HCT-116 = conditions: for TGI: HCT-116, colon cancer, wild-type p53, 48 h
SK-MEL-5 = conditions: for TGI: SK-MEL-5, melanoma, wild-type p53, 48 h
ACHN = conditions: for TGI: renal cancer, wild-type p53, 48 h
HCC-2998 = conditions: for TGI: HCC-2998, colon cancer, mutant p53, 48 h
HS 578T = conditions: 48 h; for TGI: HS 578T, breast cancer, mutant p53
SK-OV-3 = conditions: for TGI: SK-OV-3, ovarian cancer, no p53 protein expressed, 48 h
M14 = conditions: for TGI: M14, melanoma, mutant p53, 48 h
SK-MEL-28 = conditions: for TGI: SK-MEL-28, melanoma, mutant p53, 48 h
A498 = conditions: for TGI: A498, renal cancer, wild-type p53, 48 h
SF-539 = conditions: for TGI: SF-539, CNS cancer (brain tumor), mutant p53, 48 h
OVCAR-3 = conditions: for TGI: OVCAR-3, ovarian cancer, mutant p53, 48 h
SW-620 = conditions: for TGI: SW-620, colon cancer, mutant p53, 48 h
NCI/ADR-RES = conditions: for TGI: ovarian cancer, mutant p53, 48 h
COLO 205 = conditions: for TGI: COLO 205, colon cancer, mutant p53, 48 h
[1] = system: 60 human cancer cell lines; conditions: for induction of cancer cell death (classification): NCI 60 panel overall; for Mean of Inhibition Data (MID) TGI, 10^MID: mean over all tested cell lines of the NCI 60 panel
Source text: The defined tumor inhibition criterion (GI50, TGI, or LC50) is recalculated in log10 expression, and the colored bars, which indicate then the sensitivity of the individual tumor cell line to the agent, are given in log10 units. […] The most important feature is at the bottom of the page: the MID (Mean of Inhibition Data) indicates the mean concentration for all tested cell lines required for the drug to reach the defined tumor inhibition criterion (GI50, TGI, or LC50). It is given in Log10GI50, Log10TGI, and Log10LC50. From those values, the corresponding MID is calculated. […] The MID can be transformed from logarithmic into linear concentrations by the formula: c = 10^MID.
The human tumor cell lines of the cancer screening panel are grown in RPMI-1640 medium containing 5% fetal bovine serum (FBS) and 2 mM L-glutamine. For a typical screening experiment, cells are inoculated into 96-well microtiter plates in 100 μL at plating densities ranging from 5000 to 40,000 cells/well, depending on the doubling time of individual cell lines. After cell inoculation, the microtiter plates are incubated at 37 °C, 5% CO2, 95% air, and 100% relative humidity for 24 h prior to the addition of experimental drugs. After 24 h, two plates of each cell line are fixed in situ with trichloroacetic acid (TCA) to represent a measurement of the cell population for each cell line at the time of drug addition (Tz). Experimental drugs are solubilized in dimethyl sulfoxide (DMSO) at 400-fold the desired final maximum test concentration and stored frozen prior to use. At the time of drug addition, an aliquot of frozen concentrate is thawed and diluted to twice the desired final maximum test concentration with a complete medium containing 50 μg/mL gentamicin. Additional four, 10-fold or ½ log serial dilutions are made to provide a total of five drug concentrations plus control. Aliquots of 100 μL of these different drug dilutions are added to the appropriate microtiter wells already containing 100 μL of the medium, resulting in the required final drug concentrations.
Following drug addition, the plates are incubated for an additional 48 h at 37 °C, 5% CO2, 95% air, and 100% relative humidity. For adherent cells, the assay is terminated by the addition of cold TCA. Cells are fixed in situ by the gentle addition of 50 μL of cold 50% (m/v) TCA (final concentration, 10% TCA) and incubated for 60 min at 4 °C. The supernatant is discarded, and the plates are washed five times with tap water and air dried. Sulforhodamine B (SRB) solution [100 μL at 0.4% (m/v) in 1% acetic acid] is added to each well, and plates are incubated for 10 min at room temperature. After staining, unbound dye is removed by washing five times with 1% acetic acid, and the plates are air dried. Bound stain is subsequently solubilized with 10 mM trizma® base [2-amino-2-(hydroxymethyl)-1,3-propandiol, tris base, trometamol], and the absorbance is read on an automated plate reader at a wavelength of λ = 515 nm. For suspension cells, the methodology is the same, except that the assay is terminated by fixing settled cells at the bottom of the wells by gently adding 50 μL of 80% TCA (final concentration, 16% TCA). Using the seven absorbance measurements [time zero, (Tz), control growth, (C), and test growth in the presence of the drug at the five concentration levels (Ti)], the percentage growth is calculated at each of the drug concentration levels. Percentage growth inhibition is calculated as:[(Ti − Tz)/(C − Tz)] × 100 for concentrations for which Ti ≥ Tz [(Ti − Tz)/Tz] × 100 for concentrations for which Ti < Tz
Three dose-response parameters are calculated for each experimental agent.

OVCAR-5 = conditions: for TGI: OVCAR-5, ovarian cancer, p53 Lit. inconclusive, 48 h
BT-549 = conditions: for TGI: BT-549, breast cancer, mutant p53, 48 h
OVCAR-4 = conditions: for TGI: OVCAR-4, ovarian cancer, mutant p53, 48 h
[2] = Homo sapiens, 48 h, read-out: LC50

COc1cc2c(c(OC)c1OC)-c1ccc(NNC(=S)N(Cc3cccc(C[N+](Cc4cccc(CNC56CC7CC(CC(C7)C5)C6)c4)(Cc4cccc(CNC56CC7CC(CC(C7)C5)C6)c4)Cc4cccc(CN(C(=S)NNc5ccc6c(cc5=O)C(NC(C)=O)CCc5cc(OC)c(OC)c(OC)c5-6)C56CC7CC(CC(C7)C5)C6)c4)c3)C34CC5CC(CC(C5)C3)C4)c(=O)cc1C(NC(C)=O)CC2 [Compound 3, [(bis{3-[(tricyclo[3.3.1.1^3,7]decan-1-ylamino)methyl]benzyl}ammonio)bis(methanediylbenzene-3,1-diylmethanediyl)]di-2-[(aS,7S)-7-(acetylamino)-1,2,3-trimethoxy-9-oxo-5,6,7,9-tetrahydrobenzo[a]heptalen-10-yl]-N-(tricyclo[3.3.1.1^3,7]decan-1-yl)hydrazinecarbothioamide chloride pentahydrate]
TGI (KM-12): 4.52 µM | TGI (MDA-MB-231): 2.99 µM | TGI (SNB-19): 6.20 µM | TGI (NCI-H226): 9.97 µM | TGI (PC-3): 5.64 µM | TGI (RXF 393): 6.65 µM | TGI (A549): 6.00 µM | TGI (NCI-H460): 3.79 µM | TGI (UO-31): 7.20 µM | TGI (HCT-116): 3.07 µM | TGI (SK-MEL-5): 2.25 µM | TGI (ACHN): 7.99 µM | TGI (HCC-2998): 1.47 µM | TGI (HS 578T): 6.76 µM | TGI (SK-OV-3): 7.51 µM | TGI (M14): 2.26 µM | TGI (SK-MEL-28): 4.07 µM | TGI (A498): 3.28 µM | TGI (SF-539): 4.30 µM | TGI (OVCAR-3): 6.53 µM | TGI (SW-620): 2.06 µM | TGI (NCI/ADR-RES): 12.5 µM | TGI (COLO 205): 1.52 µM | induction of cancer cell death (classification) [1]: tumoricidal | Mean of Inhibition Data (MID) TGI, 10^MID [1]: 4.571 µM and 4.57 µM | TGI (OVCAR-5): 5.03 µM | TGI (BT-549): 5.89 µM | TGI (OVCAR-4): 8.94 µM

COc1cc2c(c(OC)c1OC)-c1ccc(NNC(N)=S)c(=O)cc1C(NC(C)=O)CC2 [Compound 2, N-[(aS,7S)-10-(2-carbamothioylhydrazinyl)-1,2,3-trimethoxy-9-oxo-5,6,7,9-tetrahydrobenzo[a]heptalen-7-yl]acetamide monohydrate × ⅔ (ethyl acetate)]
GI50 (KM-12; Homo sapiens, KM12, 48 h): 0.255 µM | CC50 (KM-12; Homo sapiens, KM12, 48 h, read-out: LC50): > 100 µM | TGI (KM-12): 0.801 µM | GI50 (MDA-MB-231; Homo sapiens, MDA-MB-231, 48 h): 0.359 µM | CC50 (MDA-MB-231; Homo sapiens, MDA-MB-231, 48 h, read-out: LC50): > 100 µM | TGI (MDA-MB-231): 1.88 µM | GI50 (SNB-19; Homo sapiens, SNB-19, 48 h): 0.686 µM | CC50 (SNB-19; Homo sapiens, SNB-19, 48 h, read-out: LC50): > 100 µM | TGI (SNB-19): > 100 µM | GI50 (NCI-H226; Homo sapiens, NCI-H226, 48 h): 1.74 µM | CC50 (NCI-H226; Homo sapiens, NCI-H226, 48 h, read-out: LC50): > 100 µM | TGI (NCI-H226): > 100 µM | GI50 (PC-3; Homo sapiens, PC-3, 48 h): 0.255 µM | CC50 (PC-3; Homo sapiens, PC-3, 48 h, read-out: LC50): > 100 µM | TGI (PC-3): > 100 µM | GI50 (RXF 393; Homo sapiens, RXF 393, 48 h): 0.298 µM | CC50 (RXF 393; Homo sapiens, RXF 393, 48 h, read-out: LC50): > 100 µM | TGI (RXF 393): 0.747 µM | TGI (A549): > 100 µM | GI50 (A549; Homo sapiens, A549, 48 h): 3.23 µM | CC50 (A549; Homo sapiens, A549, 48 h, read-out: LC50): > 100 µM | GI50 (NCI-H460; Homo sapiens, NCI-H460, 48 h): 0.429 µM | CC50 (NCI-H460; Homo sapiens, NCI-H460, 48 h, read-out: LC50): > 100 µM | TGI (NCI-H460): > 100 µM | GI50 (UO-31; Homo sapiens, UO-31, 48 h): > 100 µM | CC50 (UO-31; Homo sapiens, UO-31, 48 h, read-out: LC50): > 100 µM | TGI (UO-31): > 100 µM | TGI (HCT-116): 10.6 µM | GI50 (HCT-116; Homo sapiens, HCT-116, 48 h): 0.377 µM | CC50 (HCT-116; Homo sapiens, HCT-116, 48 h, read-out: LC50): > 100 µM | GI50 (SK-MEL-5; Homo sapiens, SK-MEL-5, 48 h): 0.373 µM | CC50 (SK-MEL-5; Homo sapiens, SK-MEL-5, 48 h, read-out: LC50): > 100 µM | TGI (SK-MEL-5): 4.71 µM | GI50 (ACHN; Homo sapiens, 48 h): 8.5 µM | CC50 (ACHN; [2]): > 100 µM | TGI (ACHN): > 100 µM | TGI (HCC-2998): 0.674 µM | GI50 (HCC-2998; Homo sapiens, HCC 2998, 48 h): 0.272 µM | CC50 (HCC-2998; Homo sapiens, HCC 2998, 48 h, read-out: LC50): > 100 µM | TGI (HS 578T): > 100 µM | GI50 (HS 578T; Homo sapiens, Hs-578T): > 100 µM | CC50 (HS 578T; Homo sapiens, Hs-578T, read-out: LC50): > 100 µM | GI50 (SK-OV-3; Homo sapiens, SK-OV-3, 48 h): 1.39 µM | CC50 (SK-OV-3; Homo sapiens, SK-OV-3, 48 h, read-out: LC50): > 100 µM | TGI (SK-OV-3): > 100 µM | GI50 (M14; Homo sapiens, M14, 48 h): 0.284 µM | CC50 (M14; Homo sapiens, M14, 48 h, read-out: LC50): > 100 µM | TGI (M14): 0.735 µM | CC50 (SK-MEL-28; Homo sapiens, SK-MEL-28, 48 h, read-out: LC50): > 100 µM | TGI (SK-MEL-28): > 100 µM | TGI (A498): > 100 µM | GI50 (A498; Homo sapiens, A498, 48 h): 2.09 µM | CC50 (A498; Homo sapiens, A498, 48 h, read-out: LC50): > 100 µM | GI50 (SF-539; Homo sapiens, SF-539, 48 h): 0.418 µM | CC50 (SF-539; Homo sapiens, SF-539, 48 h, read-out: LC50): > 100 µM | TGI (SF-539): 20.5 µM | GI50 (OVCAR-3; Homo sapiens, OVCAR-3, 48 h): 0.217 µM | TGI (OVCAR-3): 0.459 µM | GI50 (SW-620; Homo sapiens, SW-620, 48 h): 0.369 µM | CC50 (SW-620; Homo sapiens, SW-620, 48 h, read-out: LC50): > 100 µM | TGI (SW-620): > 100 µM | GI50 (NCI/ADR-RES; Homo sapiens, 48 h): 25.3 µM | CC50 (NCI/ADR-RES; [2]): > 100 µM | TGI (NCI/ADR-RES): > 100 µM | TGI (COLO 205): 0.622 µM | GI50 (COLO 205; Homo sapiens, COLO 205, 48 h): 0.28 µM | CC50 (COLO 205; Homo sapiens, COLO 205, 48 h, read-out: LC50): 9.13 µM | GI50 ([1]; Homo sapiens, read-out: Mean of Inhibition Data (MID) GI50, 10^MID): 0.933 µM | CC50 ([1]; Homo sapiens, read-out: Mean of Inhibition Data (MID) LC50, 10^MID): 95.5 µM | induction of cancer cell death (classification) [1]: acts only cytostatic | Mean of Inhibition Data (MID) TGI, 10^MID [1]: 32.359 µM | GI50 (OVCAR-5; Homo sapiens, OVCAR-5, 48 h): 9.67 µM | CC50 (OVCAR-5; Homo sapiens, OVCAR-5, 48 h, read-out: LC50): > 100 µM | TGI (OVCAR-5): > 100 µM | TGI (BT-549): 0.924 µM | GI50 (BT-549; Homo sapiens, BT-549, 48 h): 0.294 µM | CC50 (BT-549; Homo sapiens, BT-549, 48 h, read-out: LC50): > 100 µM | GI50 (OVCAR-4; Homo sapiens, OVCAR-4, 48 h): 0.507 µM | CC50 (OVCAR-4; Homo sapiens, OVCAR-4, 48 h, read-out: LC50): > 100 µM | TGI (OVCAR-4): > 100 µM

From publication PMC10892984, “Novel Antineoplastic Inducers of Mitochondrial Apoptosis in Human Cancer Cells” (Molecules, 2024)
